Patent US20210308034A1, “PREBIOTIC COMPOSITIONS AND METHODS FOR MAINTAINING A HEALTHY SKIN MICROBIOTA” (KIMBERLY-CLARK WORLDWIDE, INC., priority 2018, published 2021)

Key:
Format in all cases: cell-based
[1] = tested on: Corynebacterium jeikum (ATCC 33033); test: Carbohydrate Screening Test Method (Biolog phenotype microarray), Bacteria Code B; details: Commensal; carbon microarray plate, OD 600 nm, 36 hr, 33° C.; positive = more than 0.05 OD units above zero; blank cell = not utilized
In short: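 Strain from M9*2 agar was suspended in M9*1 medium, washed and inoculated into Biolog PM1/PM2 carbon plates. Carbohydrate use was scored yes/no, and growth rate and maximum yield were derived with GrowthRates 2.1, with max yields used for commensal ratios.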

[2] = tested on: Staphylococcus aureus (ATCC 25904) (Newman); test: Carbohydrate Screening Test Method (Biolog phenotype microarray), Bacteria Code H; details: Pathogenic; carbon microarray plate, OD 600 nm, 36 hr, 33° C.; positive = more than 0.05 OD units above zero; blank cell = not utilized
Text: (§1) After creating desired ratios of various commensal skin bacteria in a healthy skin microbiome, 188 different carbohydrate sources were screened as the next step in determining potential prospects for skin microbiota balancing agents. The screening process was set up to determine which carbohydrate sources promoted commensal and/or pathogenic bacteria as well as to obtain individual and combinations of carbohydrate sources that could serve as microbiota balancing agents that can support or maintain the healthy proportions of commensal skin bacteria of Corynebacterium, Staphylococcus, and Micrococcus. The screening was conducted utilizing Biolog phenotype microarray plates (Hayward, Calif.). Table 1 provides a coded list of the commensal and pathogenic skin bacteria that the carbohydrates were screened against.
(§2) Table 2 provides the results of screening various carbohydrate sources against the commensal and pathogenic bacteria codes listed in Table 1. The Bacteria Codes B, D, E, I, and J are commensal bacteria and are shaded in Table 2 for references purposes. The bacteria codes were each placed in a carbon microarray plate and screened through the Carbohydrate Screening Test Method, as described in the Test Methods section herein. If a particular bacteria code utilized a specific carbohydrate source as described in the Carbohydrate Screening Test Method, then the corresponding cell in Table 2 was marked with a Y (short for “Yes”). […] Many of the carbohydrate sources were utilized by both commensal and pathogenic bacteria, and as such, would not provide an advantage for selective growth of the commensal bacteria. However, some of the carbohydrate sources were only used by commensal bacteria and were identified for further testing as described herein.
(§3) The study employed 10 representative skin bacteria; Staphylococcus epidermidis ATCC 14990, Staphylococcus epidermidis M23864:W2, Staphylococcus aureus ATCC 6538, Staphylococcus aureus ATCC 25904 (Newman), Pseudomonas aeruginosa ATCC 9027, Micrococcus luteus ATCC […], Micrococcus luteus SK58, Klebsiella pneumoniae ATCC BAA-2146, Corynebacterium amycolatum SK46, and Corynebacterium minutissimum ATCC 23348. Cultures were started from freezer bead stocks by placing a single bead into 20 mL of tryptic soy broth (TSB) for all organisms except C. amycolatum SK46 and C. minutissimum ATCC 23348, which were placed into brain heart infusion (BHI) broth. Cultures were grown for about 24 hr at 37° C. except M. luteus ATCC 49732 and M. luteus SK58, which were grown at 30° C. A passage of the culture was made using a sterile swab and streaked onto two M9*2 agar plates to prepare the incubated culture for the phenotype microarray pate according to Table 4. Plates were incubated for about 24 hr at 37° C. except for M. luteus ATCC 49732 and M. luteus SK58, which were incubated at 30° C. for 24 hr.
(§4) All cultures were harvested and washed before inoculation into the carbon microarray plate (BiOLOG, Hayward Calif.), with Biolog Plates PM1 and PM2 each having a source definition of Carbon. The bacteria on the M9*2 agar was suspended via agitation with an inoculating loop in 1 mL of M9*1 media for collection in a 1.7 mL micro centrifuge tube, as noted in Table 4. The bacteria was suspended again in M9*1 media, agitated, and collected into the same 1.7 mL microcentrifuge tube used in the previous step. The tube was centrifuged for 5 minutes at 4,000×G, supernatant decanted, the pellet was resuspended in 1 mL of M9*1 media, and vortex. This washing process was repeated for a total of 4 times.
(§5) A tenfold dilution in M9*1 media was performed using 1 mL of the washed bacterial culture. Of the tenfold dilution 200 μL was placed in an untreated 96-well plate (Falcon, Pasadena Tx.) for an initial optical density (OD) reading at a wavelength of 600 nm. The OD was used to correlate to colony forming units (CFU) per milliliter by using linear regression lines for each organism. […]

[3] = tested on: Staphylococcus aureus (ATCC 6538); test: Carbohydrate Screening Test Method (Biolog phenotype microarray), Bacteria Code G; details: Pathogenic; carbon microarray plate, OD 600 nm, 36 hr, 33° C.; positive = more than 0.05 OD units above zero; blank cell = not utilized
Text: as §1, §2, §3, §4, §5

[4] = tested on: Staphylococcus epidermidis (M23864:W2); test: Carbohydrate Screening Test Method (Biolog phenotype microarray), Bacteria Code J; details: Commensal; carbon microarray plate, OD 600 nm, 36 hr, 33° C.; positive = more than 0.05 OD units above zero; blank cell = not utilized
[5] = tested on: Pseudomonas aeruginosa (ATCC 9027); details: Pathogenic; carbon microarray plate, OD 600 nm, 36 hr, 33° C.; positive = more than 0.05 OD units above zero; blank cell = not utilized
In short: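 Carbon-source utilisation screen on Biolog PM1/PM2 plates: strain grown in TSB then on M9*2 agar, each ~24 h at 37 °C, washed four times in M9*1 and diluted tenfold. OD600 correlated to CFU/mL; each carbohydrate scored Yes when utilised.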

[6] = tested on: Klebsiella pneumoniae (ATCC BAA-2146); details: Pathogenic; carbon microarray plate, OD 600 nm, 36 hr, 33° C.; positive = more than 0.05 OD units above zero; blank cell = not utilized
[7] = tested on: Micrococcus luteus (SK58); test: Carbohydrate Screening Test Method (Biolog phenotype microarray), Bacteria Code E; details: Commensal; carbon microarray plate, OD 600 nm, 36 hr, 33° C.; positive = more than 0.05 OD units above zero; blank cell = not utilized
In short: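 Each commensal strain grown in Biolog carbon phenotype microarray plates with single carbohydrate sources. Growth curves fitted with GrowthRates 2.1 to give growth rate and maximum yield. Max yields used to calculate predicted co-culture ratios between Corynebacterium, Staphylococcus and Micrococcus, compared with desired ratios of 1.3, 1.4 and 1.1.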

[8] = tested on: Corynebacterium minutissimum (ATCC 23348); test: Carbohydrate Screening Test Method (Biolog phenotype microarray), Bacteria Code A; details: Pathogenic; carbon microarray plate, OD 600 nm, 36 hr, 33° C.; positive = more than 0.05 OD units above zero; blank cell = not utilized
Text: as §1, §2, §3, §4, §5

[9] = tested on: Staphylococcus epidermidis (ATCC 14990); test: Carbohydrate Screening Test Method (Biolog phenotype microarray), Bacteria Code I; details: Commensal; carbon microarray plate, OD 600 nm, 36 hr, 33° C.; positive = more than 0.05 OD units above zero; blank cell = not utilized
In short: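 Staphylococcus epidermidis ATCC 14990, a commensal skin bacterium, was grown from a freezer bead in 20 mL tryptic soy broth for about 24 hr at 37° C. It was then streaked onto M9*2 agar and incubated a further 24 hr at 37° C. Cells were harvested, resuspended in M9*1 media, centrifuged 5 minutes at 4,000×G and washed 4 times.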

[10] = tested on: Micrococcus luteus (ATCC 49732); test: Carbohydrate Screening Test Method (Biolog phenotype microarray), Bacteria Code D; details: Commensal; carbon microarray plate, OD 600 nm, 36 hr, 33° C.; positive = more than 0.05 OD units above zero; blank cell = not utilized
Text: as §1, §2, §3, §4, §5

OC[C@H]1O[C@H](O)[C@H](O)[C@@H](O)[C@@H]1O [α-D-Glucose]
Y: Carbohydrate Screening Results, Bacteria Code B [1] | Carbohydrate Screening Results, Bacteria Code H [2] | Carbohydrate Screening Results, Bacteria Code G [3] | Carbohydrate Screening Results, Bacteria Code J [4] | Carbohydrate Screening Results, Bacteria Code F [5] | Carbohydrate Screening Results, Bacteria Code C [6] | Carbohydrate Screening Results, Bacteria Code E [7] | Carbohydrate Screening Results, Bacteria Code A [8] | Carbohydrate Screening Results, Bacteria Code I [9]

OC[C@H]1O[C@H](O[C@H]2O[C@H](CO)[C@@H](O)[C@H](O)[C@H]2O)[C@H](O)[C@@H](O)[C@@H]1O [D-Trehalose]
Y: Carbohydrate Screening Results, Bacteria Code B [1] | Carbohydrate Screening Results, Bacteria Code H [2] | Carbohydrate Screening Results, Bacteria Code D [10] | Carbohydrate Screening Results, Bacteria Code G [3] | Carbohydrate Screening Results, Bacteria Code F [5] | Carbohydrate Screening Results, Bacteria Code C [6] | Carbohydrate Screening Results, Bacteria Code E [7]

O=C(CO)[C@@H](O)[C@H](O)[C@H](O)CO [D-Fructose]
Y: Carbohydrate Screening Results, Bacteria Code B [1] | Carbohydrate Screening Results, Bacteria Code H [2] | Carbohydrate Screening Results, Bacteria Code G [3] | Carbohydrate Screening Results, Bacteria Code J [4] | Carbohydrate Screening Results, Bacteria Code C [6] | Carbohydrate Screening Results, Bacteria Code E [7] | Carbohydrate Screening Results, Bacteria Code A [8]

O=C[C@@H](O)[C@@H](O)[C@H](O)[C@H](O)CO [D-Mannose]
Y: Carbohydrate Screening Results, Bacteria Code B [1] | Carbohydrate Screening Results, Bacteria Code H [2] | Carbohydrate Screening Results, Bacteria Code G [3] | Carbohydrate Screening Results, Bacteria Code C [6] | Carbohydrate Screening Results, Bacteria Code E [7] | Carbohydrate Screening Results, Bacteria Code A [8]
